# Source: patent publication US5358947A, “Angiotensin II receptor blocking 2,3-substituted pyrazolo[1,5-a]-1,3,5-triazin-4(3H)-ones” (American Cyanamid Company, priority 1993, dated 1994)
# Where “and” joins values, the source holds several entries; their conditions need not be identical. Identical values can stand only once.
# System: ANGIOTENSIN II (AII) VASOPRESSOR RESPONSE
# Assay: AII Challenge: angiotensin II (AII) vasopressor response in conscious rats
# Format: in vivo
# Design: Response After AII / Change / Average Change: unit not given here
# Conditions: for Response After AII / Change / Control Before AII: individual rat; for Control Before AII: in mmHg (unit assumed); for % Inhibition / Average Change: n = 2
# Excerpt: By administering a compound of this invention to a rat, and then challenging with angiotensin II, a blockage of the vasopressor response is realized.
# Conscious Male Okamoto-Aoki SHR, 16-20 weeks old, weighing approximately 330 g are purchased from Charles River Labs (Wilmington, Mass.). Conscious rats are restrained in a supine position with elastic tape. The area at the base of the tail is locally anesthetized by subcutaneous infiltration with 2% procaine. The ventral caudal artery and vein are isolated, and a cannula made of polyethylene (PE) 10-20 tubing (fused together by heat) is passed into the lower abdominal aorta and vena cava, respectively. The cannula is secured, heparinized (1,000 I.U./ml), sealed and the wound is closed. The animals are placed in plastic restraining cages in an upright position. The cannula is attached to s Statham P23Db pressure transducer, and pulsatile blood pressure is recorded to 10-15 minutes with a Gould Brush recorder. (Chan et al., (Drug Development Res., 18:75-94, 1989).
# Angiotensin II (human sequence, Sigma Chem. Co., St. Louis, Mo.) of 0.05 and 0.1 ug/kg i.v. is injected into all rats (predosing response.). Then a test compound, vehicle or a known angiotensin II antagonist is administered i.v., i.p. or orally to each set of rats. The two doses of angiotensin II are given to each rat again at 30, 60, 90, 120, 180, 240 and 300 minutes post dosing the compound or vehicle. The vasopressor response of angiotensin II by a compound is calculated using the vasopressor response (increase in systolic blood pressure) of angiotensin II of each rat predosing the compound as 100%. A compound is considered active if at 30 mg/kg i.v. it antagonized at least 50% of the response.
# [1] = 10 mg/kg i.v., AII 0.05 mcg/kg, 30 min post dose
# [2] = 10 mg/kg i.v., AII 0.05 mcg/kg, 30 min post dose, listed as Ex. 20
# [3] = 10 mg/kg i.v., AII 0.1 mcg/kg, 30 min post dose, listed as Ex. 20
# [4] = 10 mg/kg i.v., AII 0.1 mcg/kg, 30 min post dose
# [5] = 20 mg/kg i.v., AII 0.05 mcg/kg, 60 min post dose
# [6] = 20 mg/kg i.v., AII 0.05 mcg/kg, 60 min post dose, listed as Ex. 20
# [7] = 20 mg/kg i.v., AII 0.05 mcg/kg, 90 min post dose
# [8] = 20 mg/kg i.v., AII 0.05 mcg/kg, 90 min post dose, listed as Ex. 20
# [9] = 20 mg/kg i.v., AII 0.05 mcg/kg, 120 min post dose
# [10] = 20 mg/kg i.v., AII 0.05 mcg/kg, 120 min post dose, listed as Ex. 20
# [11] = 20 mg/kg i.v., AII 0.05 mcg/kg, 180 min post dose
# [12] = 20 mg/kg i.v., AII 0.05 mcg/kg, 180 min post dose, listed as Ex. 20
# [13] = 20 mg/kg i.v., AII 0.05 mcg/kg, 240 min post dose
# [14] = 20 mg/kg i.v., AII 0.05 mcg/kg, 240 min post dose, listed as Ex. 20
# [15] = 20 mg/kg i.v., AII 0.05 mcg/kg, 300 min post dose, listed as Ex. 20
# [16] = 20 mg/kg i.v., AII 0.05 mcg/kg, 300 min post dose
# [17] = 20 mg/kg i.v., AII 0.1 mcg/kg, 60 min post dose
# [18] = 20 mg/kg i.v., AII 0.1 mcg/kg, 60 min post dose, listed as Ex. 20
# [19] = 20 mg/kg i.v., AII 0.1 mcg/kg, 90 min post dose
# [20] = 20 mg/kg i.v., AII 0.1 mcg/kg, 90 min post dose, listed as Ex. 20
# [21] = 20 mg/kg i.v., AII 0.1 mcg/kg, 120 min post dose
# [22] = 20 mg/kg i.v., AII 0.1 mcg/kg, 120 min post dose, listed as Ex. 20
# [23] = 20 mg/kg i.v., AII 0.1 mcg/kg, 180 min post dose
# [24] = 20 mg/kg i.v., AII 0.1 mcg/kg, 180 min post dose, listed as Ex. 20
# [25] = 20 mg/kg i.v., AII 0.1 mcg/kg, 240 min post dose, listed as Ex. 20
# [26] = 20 mg/kg i.v., AII 0.1 mcg/kg, 240 min post dose
# [27] = 20 mg/kg i.v., AII 0.1 mcg/kg, 300 min post dose, listed as Ex. 20
# [28] = 20 mg/kg i.v., AII 0.1 mcg/kg, 300 min post dose
smiles,measurement,setting,value
CCCCc1nc2c(Br)cnn2c(=O)n1Cc1ccc(-c2ccccc2-c2nn[nH]n2)cc1 [Example 20],Response After AII,[1],245
same,Change,[2],38 and 15
same,Response After AII,[2],215
same,Control Before AII,[2],207 and 200
same,% Inhibition,[1],34%
same,Average Change,[1],26.5
same,Change,[3],45 and 35
same,Response After AII,[3],260 and 235
same,Control Before AII,[3],215 and 200
same,% Inhibition,[4],36%
same,Average Change,[4],40
same,Change,[5],20
same,Response After AII,[5],200
same,Response After AII,[6],215
same,Control Before AII,[6],195 and 180
same,% Inhibition,[5],50%
same,Average Change,[5],20
same,Response After AII,[7],200
same,Change,[8],10 and 25
same,Response After AII,[8],225
same,Control Before AII,[8],215 and 175
same,% Inhibition,[7],56%
same,Average Change,[7],17.5
same,Response After AII,[9],250
same,Change,[10],45 and 20
same,Response After AII,[10],215
same,Control Before AII,[10],205 and 195
same,% Inhibition,[9],19%
same,Average Change,[9],32.5
same,Response After AII,[11],210
same,Control Before AII,[11],185
same,Change,[12],40 and 25
same,Response After AII,[12],225
same,% Inhibition,[11],19%
same,Average Change,[11],32.5
same,Response After AII,[13],230
same,Control Before AII,[13],185
same,Change,[14],45 and 40
same,Response After AII,[14],225
same,% Inhibition,[13],-6%
same,Average Change,[13],42.5
same,Change,[15],50 and 35
same,Response After AII,[15],240 and 235
same,Control Before AII,[15],190 and 200
same,% Inhibition,[16],-6%
same,Average Change,[16],42.5
same,Response After AII,[17],200
same,Change,[18],15 and 20
same,Response After AII,[18],215
same,Control Before AII,[18],200 and 180
same,% Inhibition,[17],72%
same,Average Change,[17],17.5
same,Response After AII,[19],245
same,Change,[20],40 and 30
same,Response After AII,[20],215
same,Control Before AII,[20],205 and 185
same,% Inhibition,[19],44%
same,Average Change,[19],35
same,Response After AII,[21],250
same,Change,[22],35 and 20
same,Response After AII,[22],215
same,Control Before AII,[22],215 and 195
same,% Inhibition,[21],56%
same,Average Change,[21],27.5
same,Response After AII,[23],225
same,Change,[24],30 and 60
same,Control Before AII,[24],195 and 165
same,% Inhibition,[23],28%
same,Average Change,[23],45
same,Change,[25],60 and 55
same,Response After AII,[25],260 and 245
same,Control Before AII,[25],200 and 190
same,% Inhibition,[26],8%
same,Average Change,[26],57.5
same,Change,[27],45 and 55
same,Response After AII,[27],265 and 245
same,Control Before AII,[27],220 and 190
same,% Inhibition,[28],20%
same,Average Change,[28],50
